Source: publication PMC12669732, “Synergistic targeting of cancer cells through simultaneous inhibition of key metabolic enzymes” (Cell Death and Differentiation, 2025)

Tests used:
[1] = molecular target: T1, complex I (Homo sapiens, UniProt O75251+O75306+P03886); experiment: spectrophotometric NADH oxidation, rotenone-sensitive complex I activity; assay type: biochemical; conditions: 120 uM NADH, 20 uM oxidized cytochrome c, pH 7.5, 37 °C; Q-site (ubiquinone reduction site), no effect at NADH site
T1 construct: gene NDUFS2; native respiratory complex I (whole multi-subunit complex)
T1 sequence (O75306 34-463): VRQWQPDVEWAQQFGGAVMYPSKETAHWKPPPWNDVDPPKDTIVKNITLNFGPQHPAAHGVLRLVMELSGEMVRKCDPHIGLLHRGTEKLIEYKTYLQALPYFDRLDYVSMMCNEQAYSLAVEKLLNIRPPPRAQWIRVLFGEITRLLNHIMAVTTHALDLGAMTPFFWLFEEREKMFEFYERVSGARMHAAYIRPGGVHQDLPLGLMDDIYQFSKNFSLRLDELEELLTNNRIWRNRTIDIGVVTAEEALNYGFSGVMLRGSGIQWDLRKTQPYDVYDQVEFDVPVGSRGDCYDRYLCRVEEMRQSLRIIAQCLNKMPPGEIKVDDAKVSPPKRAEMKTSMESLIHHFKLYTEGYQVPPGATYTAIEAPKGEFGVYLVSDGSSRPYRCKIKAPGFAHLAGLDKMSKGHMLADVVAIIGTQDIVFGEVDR
T1 sequence (O75251 39-213): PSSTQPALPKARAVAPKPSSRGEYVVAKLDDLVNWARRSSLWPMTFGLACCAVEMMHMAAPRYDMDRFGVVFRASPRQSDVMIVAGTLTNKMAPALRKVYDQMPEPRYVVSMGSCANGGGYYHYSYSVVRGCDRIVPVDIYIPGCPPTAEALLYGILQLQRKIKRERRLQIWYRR
T1 sequence (P03886 whole entry): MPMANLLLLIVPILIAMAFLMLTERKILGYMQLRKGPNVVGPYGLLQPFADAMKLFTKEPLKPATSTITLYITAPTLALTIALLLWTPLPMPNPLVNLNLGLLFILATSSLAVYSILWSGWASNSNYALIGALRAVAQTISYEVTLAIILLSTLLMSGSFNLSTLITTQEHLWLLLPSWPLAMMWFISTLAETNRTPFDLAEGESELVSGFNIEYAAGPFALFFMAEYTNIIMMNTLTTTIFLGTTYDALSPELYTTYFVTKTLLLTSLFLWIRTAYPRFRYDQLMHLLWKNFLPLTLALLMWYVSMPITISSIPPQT

[2] = molecular target: T2, complex I (bovine heart) (Bos taurus, UniProt P03887+P17694+P42026); experiment: as above; assay type: biochemical; conditions: 120 uM NADH, 20 uM oxidized cytochrome c, pH 7.5, 37 °C; Q-site (ubiquinone reduction site), no effect at NADH site
T2 construct: gene NDUFS2; native respiratory complex I (whole multi-subunit complex)
T2 sequence (P17694 34-463): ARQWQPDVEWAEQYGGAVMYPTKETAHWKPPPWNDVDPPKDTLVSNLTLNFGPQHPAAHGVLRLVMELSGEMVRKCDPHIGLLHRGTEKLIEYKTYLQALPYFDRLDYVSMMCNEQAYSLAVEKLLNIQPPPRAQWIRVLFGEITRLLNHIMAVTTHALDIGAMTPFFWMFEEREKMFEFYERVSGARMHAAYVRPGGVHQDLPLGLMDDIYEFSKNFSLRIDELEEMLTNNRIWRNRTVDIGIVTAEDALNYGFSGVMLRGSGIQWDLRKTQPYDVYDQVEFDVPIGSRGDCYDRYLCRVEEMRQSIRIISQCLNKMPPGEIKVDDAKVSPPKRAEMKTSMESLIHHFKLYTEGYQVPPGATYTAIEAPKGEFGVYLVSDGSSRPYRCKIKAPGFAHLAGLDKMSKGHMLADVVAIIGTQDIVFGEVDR
T2 sequence (P42026 38-216): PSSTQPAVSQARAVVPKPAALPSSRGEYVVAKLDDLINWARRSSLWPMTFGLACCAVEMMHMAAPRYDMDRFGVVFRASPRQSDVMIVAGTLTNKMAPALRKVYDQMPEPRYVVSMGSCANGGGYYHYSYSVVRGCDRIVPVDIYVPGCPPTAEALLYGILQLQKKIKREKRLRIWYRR
T2 sequence (P03887 whole entry): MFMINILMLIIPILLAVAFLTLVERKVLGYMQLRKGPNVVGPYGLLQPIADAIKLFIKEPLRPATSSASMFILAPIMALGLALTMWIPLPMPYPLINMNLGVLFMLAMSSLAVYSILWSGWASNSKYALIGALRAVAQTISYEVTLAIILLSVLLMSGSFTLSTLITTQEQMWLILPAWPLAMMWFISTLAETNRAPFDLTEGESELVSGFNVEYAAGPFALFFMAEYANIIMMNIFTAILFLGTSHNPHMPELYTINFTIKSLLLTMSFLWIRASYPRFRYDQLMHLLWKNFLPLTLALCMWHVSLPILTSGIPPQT

C[C@@H](C(=O)Nc1ccc(Cl)cc1)[C@H]1CC[C@@H](c2ccnc3ccc(F)cc32)CC1 [BMS-986205]
complex I activity [1]: dose-dependent decrease of complex I activity in mitochondria from KRAS^G12V/MYC, HEK293T cells and bovine heart | complex I activity [2]: dose-dependent decrease of complex I activity in mitochondria from KRAS^G12V/MYC, HEK293T cells and bovine heart
